Results published in patent publication US9889115B2, “Fitness assay and associated methods” (priority 1998, dated 2018).
Read-outs that look alike come from different tables or passages of the source.

Tests used:
Format in all cases: cell-based
[1] = tested on: wild-type HIV-1 (WT); test: IC50 against wild-type HIV-1 (Table 9a); conditions: (WT)
[2] = tested on: multidrug-resistant HIV-1 clinical isolate, patient 35; test: microbe, parasite or virus in culture; conditions: Patient Isolate 35
Procedure: (§1) The mutant multidrug-resistant HIV-1 strains corresponding to each patient, numbered 9-35, were genetically analyzed in terms of the nucleic acid sequences of the protease (PR) and a portion of the reverse transcriptase (RT) genes from which mutations in these enzymes were determined. The mutations in the protease and reverse transcriptase of the multidrug-resistant viruses isolated from each patient are shown below in Table 9b.

[3] = tested on: multidrug-resistant HIV-1 clinical isolate, patient 14; test: microbe, parasite or virus in culture; conditions: Patient Isolate 14
Procedure: as §1

[4] = tested on: multidrug-resistant HIV-1 clinical isolate, patient 17; test: microbe, parasite or virus in culture; conditions: Patient Isolate 17
Procedure: as §1

[5] = tested on: multidrug-resistant HIV-1 clinical isolate, patient 20; test: microbe, parasite or virus in culture; conditions: Patient Isolate 20
Procedure: as §1

[6] = tested on: multidrug-resistant HIV-1 clinical isolate, patient 13; test: microbe, parasite or virus in culture; conditions: Patient Isolate 13
Procedure: as §1

[7] = tested on: multidrug-resistant HIV-1 clinical isolate, patient 30; test: microbe, parasite or virus in culture; conditions: Patient Isolate 30
Procedure: as §1

[8] = tested on: multidrug-resistant HIV-1 clinical isolate, patient 32; test: microbe, parasite or virus in culture; conditions: Patient Isolate 32
Procedure: as §1

[9] = tested on: multidrug-resistant HIV-1 clinical isolate, patient 23; test: microbe, parasite or virus in culture; conditions: Patient Isolate 23
Procedure: as §1

[10] = tested on: multidrug-resistant HIV-1 clinical isolate, patient 33; test: microbe, parasite or virus in culture; conditions: Patient Isolate 33
Procedure: as §1

[11] = tested on: multidrug-resistant HIV-1 clinical isolate, patient 12; test: microbe, parasite or virus in culture; conditions: Patient Isolate 12
Procedure: as §1

[12] = tested on: multidrug-resistant HIV-1 clinical isolate, patient 18; test: microbe, parasite or virus in culture; conditions: Patient Isolate 18
Procedure: as §1

[13] = tested on: multidrug-resistant HIV-1 clinical isolate, patient 16; test: microbe, parasite or virus in culture; conditions: Patient Isolate 16
Procedure: as §1

[14] = tested on: multidrug-resistant HIV-1 clinical isolate, patient 27; test: microbe, parasite or virus in culture; conditions: Patient Isolate 27
Procedure: as §1

[15] = tested on: multidrug-resistant HIV-1 clinical isolate, patient 11; test: microbe, parasite or virus in culture; conditions: Patient Isolate 11
Procedure: as §1

[16] = tested on: multidrug-resistant HIV-1 clinical isolate, patient 9; test: microbe, parasite or virus in culture; conditions: Patient Isolate 9
Procedure: as §1

[17] = tested on: multidrug-resistant HIV-1 clinical isolate, patient 29; test: microbe, parasite or virus in culture; conditions: Patient Isolate 29
Procedure: as §1

[18] = tested on: multidrug-resistant HIV-1 clinical isolate, patient 21; test: microbe, parasite or virus in culture; conditions: Patient Isolate 21
Procedure: as §1

[19] = tested on: multidrug-resistant HIV-1 clinical isolate, patient 15; test: microbe, parasite or virus in culture; conditions: Patient Isolate 15
Procedure: as §1

[20] = tested on: multidrug-resistant HIV-1 clinical isolate, patient 19; test: microbe, parasite or virus in culture; conditions: Patient Isolate 19
Procedure: as §1

[21] = tested on: multidrug-resistant HIV-1 clinical isolate, patient 28; test: microbe, parasite or virus in culture; conditions: Patient Isolate 28
Procedure: as §1

[22] = tested on: multidrug-resistant HIV-1 clinical isolate, patient 10; test: microbe, parasite or virus in culture; conditions: Patient Isolate 10
Procedure: as §1

[23] = tested on: multidrug-resistant HIV-1 clinical isolate, patient 22; test: IC50 against multidrug-resistant clinical isolates (Table 9a)
Procedure: as §1

[24] = tested on: multidrug-resistant HIV-1 clinical isolate, patient 31; test: microbe, parasite or virus in culture; conditions: Patient Isolate 31
Procedure: as §1

[25] = tested on: multidrug-resistant HIV-1 clinical isolate, patient 34; test: IC50 against multidrug-resistant clinical isolates (Table 9a)
Procedure: as §1

[26] = tested on: HIV-1BAL; test: PHA-PBMC assay, p24 Gag protein production; conditions: Human immunodeficiency virus 1; HIV-1BAL, NSI; PHA-PBMC, p24 (Table 3)
[27] = tested on: HIV-1LAI; test: PHA-PBMC assay, p24 Gag protein production; conditions: Human immunodeficiency virus 1; HIV-1LAI, SI; PHA-PBMC, p24 (Table 3)
[28] = tested on: multidrug-resistant HIV-1 clinical isolate, patient 2; test: PHA-PBMC assay, p24 Gag protein production; conditions: Human immunodeficiency virus 1; Patient/Isolate code 2; PHA-PBMC, p24
Procedure: (§2) The patient profiles are shown below in Table 2.
(§3) To determine protease inhibitory activity against multidrug resistant HIV, the IC50's were measured against a panel of clinically isolated mutant HIV isolates.
(§4) All drug sensitivities were performed in triplicate. In order to determine whether the HIV isolates were syncitium inducing (SI) or non-syncitium inducing (NSI), an aliquot of viral stock supernatant, containing 100 TCID50, was cultured with 1×10^5 MT-2 cells in a 12-well plate. Cultures were maintained for four weeks and were examined for syncytium formation twice a week.

[29] = tested on: multidrug-resistant HIV-1 clinical isolate, patient 5; test: PHA-PBMC assay, p24 Gag protein production; conditions: Human immunodeficiency virus 1; Patient/Isolate code 5; PHA-PBMC, p24
Procedure: as §2, §3, §4

[30] = tested on: multidrug-resistant HIV-1 clinical isolate, patient 4; test: PHA-PBMC assay, p24 Gag protein production; conditions: Human immunodeficiency virus 1; Patient/Isolate code 4; PHA-PBMC, p24
Procedure: as §2, §3, §4

[31] = tested on: multidrug-resistant HIV-1 clinical isolate, patient 3; test: PHA-PBMC assay, p24 Gag protein production; conditions: Human immunodeficiency virus 1; Patient/Isolate code 3; PHA-PBMC, p24
Procedure: as §2, §3, §4

[32] = tested on: multidrug-resistant HIV-1 clinical isolate, patient 1; test: PHA-PBMC assay, p24 Gag protein production; conditions: Human immunodeficiency virus 1; Patient/Isolate code 1; PHA-PBMC, p24
Procedure: as §2, §3, §4

[33] = tested on: multidrug-resistant HIV-1 clinical isolate, patient 8; test: PHA-PBMC assay, p24 Gag protein production; conditions: Human immunodeficiency virus 1; Patient/Isolate code 8; PHA-PBMC, p24
Procedure: as §2, §3, §4

[34] = tested on: HIV-1ERS104pre; test: PHA-PBMC assay, p24 Gag protein production; conditions: Human immunodeficiency virus 1; HIV-1ERS104pre, SI; PHA-PBMC, p24
Procedure: as §2, §3, §4

[35] = tested on: multidrug-resistant HIV-1 clinical isolate, patient 7; test: PHA-PBMC assay, p24 Gag protein production; conditions: Human immunodeficiency virus 1; Patient/Isolate code 7; PHA-PBMC, p24
Procedure: as §2, §3, §4

[36] = tested on: multidrug-resistant HIV-1 clinical isolate, patient 6; test: PHA-PBMC assay, p24 Gag protein production; conditions: Human immunodeficiency virus 1; Patient/Isolate code 6; PHA-PBMC, p24
Procedure: as §2, §3, §4

[37] = tested on: HIV; test: influence of human protein binding on antiviral activity
Source text: These failures have been ascribed, but not definitively proven, to be due to excessive binding to human plasma proteins, particularly serum albumin and AAG.

[38] = Patient Isolate 22, read-out: IC50

Cc1cn([C@H]2C[C@H](N=[N+]=[N-])[C@@H](CO)O2)c(=O)[nH]c1=O [AZT, 3′-azido-2′,3′-dideoxythymidine]
IC50 [1]: 22 nM
IC50 [2]: 880 nM
IC50 [3]: 640 nM
IC50 [4]: > 1250 nM
IC50 [5]: 1250 nM
IC50 [6]: 170 nM
IC50 [7]: 160 nM
IC50 [8]: 320 nM
IC50 [9]: 190 nM
IC50 [10]: 510 nM
IC50 [11]: 70 nM
IC50 [12]: 550 nM
IC50 [13]: 970 nM
IC50 [14]: 30 nM
IC50 [15]: 110 nM
IC50 [16]: 10 nM
IC50 [17]: > 1250 nM
IC50 [18]: > 1250 nM
IC50 [19]: 200 nM
IC50 [20]: > 1250 nM
IC50 [21]: > 1250 nM
IC50 [22]: 20 nM
IC50 [23, 38]: 1020 nM

Cc1cn([C@H]2C=C[C@@H](CO)O2)c(=O)[nH]c1=O [Compound D4T]
IC50 [1]: 1060 nM
IC50 [2]: 18100 nM
IC50 [24]: 3110 nM
IC50 [3]: 1100 nM
IC50 [4]: 4280 nM
IC50 [5]: 22500 nM
IC50 [6]: 780 nM
IC50 [7]: 2520 nM
IC50 [8]: 2410 nM
IC50 [9]: 1000 nM
IC50 [10]: 2730 nM
IC50 [11]: 1230 nM
IC50 [12]: 2080 nM
IC50 [13]: 1810 nM
IC50 [14]: 4000 nM
IC50 [15]: 3100 nM
IC50 [16]: 910 nM
IC50 [17]: 5290 nM
IC50 [18]: 3280 nM
IC50 [19]: 1100 nM
IC50 [20]: 35600 nM
IC50 [21]: 5440 nM
IC50 [22]: 1290 nM
IC50 ([25]; Patient Isolate 34, read-out: IC50): 7710 nM
IC50 [23, 38]: 4680 nM

CC(C)CN(C[C@@H](O)[C@H](Cc1ccccc1)NC(=O)O[C@H]1CCOC1)S(=O)(=O)c1ccc(N)cc1 [AMV, Amprenavir]
IC50 [26]: 14 nM
IC50 [27]: 19 nM
IC50 [28]: 240 nM
IC50 [29]: 280 nM
IC50 [30]: 400 nM
IC50 [31]: 330 nM
IC50 [32]: 290 nM
IC50 [33]: 220 nM
IC50 [34]: 21 nM
IC50 [35]: 420 nM
IC50 [36]: 110 nM
fold of IC50 relative to (−) ([37]; (−), no added protein): 1 ×
fold of IC50 relative to (−) ([37]; Alb: human serum albumin (HAS, 300 μM)): 1 ×
IC50 ([37]; Human immunodeficiency virus 1, (−), no added protein): 29 nM
IC50 ([37]; Human immunodeficiency virus 1, Alb: human serum albumin (HAS, 300 μM)): 21 nM
IC50 ([37]; Human immunodeficiency virus 1, human alpha acid glycoprotein (AAG, 10 μM)): 180 nM
fold of IC50 relative to (−) ([37]; human alpha acid glycoprotein (AAG, 10 μM)): 6 ×

Cc1c(O)cccc1C(=O)N[C@@H](CSc1ccccc1)[C@H](O)CN1C[C@H]2CCCC[C@H]2C[C@H]1C(=O)NC(C)(C)C [Nel., Nelfinavir]
IC50 ([1]; Human immunodeficiency virus 1): 31 nM
IC50 ([2]; Human immunodeficiency virus 1): 480 nM
IC50 ([24]; Human immunodeficiency virus 1): 240 nM
IC50 ([3]; Human immunodeficiency virus 1): 10 nM
IC50 ([4]; Human immunodeficiency virus 1): 520 nM
IC50 ([5]; Human immunodeficiency virus 1): 580 nM
IC50 ([6]; Human immunodeficiency virus 1): 470 nM
IC50 ([7]; Human immunodeficiency virus 1): 520 nM
IC50 ([8]; Human immunodeficiency virus 1): 220 nM
IC50 ([9]; Human immunodeficiency virus 1): 280 nM
IC50 ([10]; Human immunodeficiency virus 1): 350 nM
IC50 ([11]; Human immunodeficiency virus 1): > 1250 nM
IC50 ([12]; Human immunodeficiency virus 1): 600 nM
IC50 ([13]; Human immunodeficiency virus 1): 860 nM
IC50 ([14]; Human immunodeficiency virus 1): > 1250 nM
IC50 ([15]; Human immunodeficiency virus 1): 30 nM
IC50 ([16]; Human immunodeficiency virus 1): 980 nM
IC50 ([17]; Human immunodeficiency virus 1): 670 nM
IC50 ([18]; Human immunodeficiency virus 1): > 1250 nM
IC50 ([19]; Human immunodeficiency virus 1): 470 nM
IC50 ([20]; Human immunodeficiency virus 1): 500 nM
IC50 ([21]; Human immunodeficiency virus 1): > 1250 nM
IC50 ([22]; Human immunodeficiency virus 1): > 1250 nM
IC50 ([25]; Human immunodeficiency virus 1): 260 nM
IC50 ([23]; Human immunodeficiency virus 1): 100 nM
